# According to patent US20150025131A1 (priority 2013, published 2015):
# “Also recorded” adds a separate entry of the source.
# Assays:
# [1] = MTT cytotoxicity assay, NIH 3T3; type: cell-based, mouse; conditions: mouse, NIH 3T3 mouse embryo fibroblast cells, 48 h incubation, read-out: Cytotoxicity (IC50 μg/mL) NIH 3T3 cells
# Description: (§1) Cell cytotoxicity assay was performed using three different cell lines NIH 3T3 (mouse embryo, fibroblast cells), CC1 (rat, epithelial, liver cell) and MDBK (bovine kidney) cells using MTT (3-[4,5-dimethylthiazole-2-yl]-2,5-diphenyl-tetrazolium bromide) colorimetric assay. Briefly 3T3 were grown in DMEM, supplemented with 10% of fetal bovine serum (FBS), and 1% penicillin-streptomycin whereas CC1 (rat epithelial liver cells) were cultured in EMEM, 2 mM Glutamine, 1% Non-Essential Amino Acids (NEAA), 20 mM HEPES, 10% Foetal Bovine Serum (FBS) and 1% penicillin-streptomycin, and MDBK cells were grown in 10% of fetal bovine serum (FBS) in 75 cm^2 flask, and incubated in 5% CO2 incubator at 37° C. until they attain 70% confluency. Cells were then harvested by centrifuging at 200 g for 5 min at 25° C., counted using heamocytometer and their concentration was adjusted to 6×10^4 cells/mL. 100 μL of Cells were then plated in 96 well plate and incubated overnight. Next day the supernatant was carefully removed and 200 μL of fresh medium was added with three different concentration of compound (1, 10, 50) μg/mL. […] The extent of MTT reduction to formazan within cells was calculated by measuring the absorbance at 540 nm; using a micro plate reader (Spectra Max plus 340, Molecular Devices, Calif., USA). […] The percent inhibition was calculated by using the following formula: […]
# [2] = system: NIH 3T3 mouse fibroblast cells; assay: MTT cytotoxicity assay, NIH 3T3; type: cell-based
# Description: as §1
# TNF-α production = TNF-α production from PMA differentiated, LPS activated THP-1 cells (ELISA); type: cell-based, human; conditions: Homo sapiens, 4 h, read-out: inhibition of TNF-α production (IC50)
# Description: The symbol * and δ represents the P≦0.03 and P≦0.006, respectively.
# FIG. 2 depicts the effect of pentoxyfillin (PTX) on TNF-α production (pg/mL) Human monocytic leukemia THP-1 cells were differentiated and activated with 20 ng/mL of PMA and 50 ng/mL of LPS, respectively and incubated with different concentrations of PTX for 4h, the supernatant was analyzed for the level of TNF-α by ELISA. The symbol * represents P≦of 0.03.
# THP-1 (human monocytic leukemia) cells were maintained in RPMI-1640 supplemented with 10% FBS, 2 mmol/L glutamine, 5.5 mmol/L glucose, 50 μmol/L mercaptoethanol, 1 mmol/L sodium pyruvate, and 10 mmol/L HEPES and incubated at 37° C. in 5% CO2. Cells were grown in […] culture flask until they attained 70% confluency. Cells were then plated in 24-well tissue culture plates at a concentration of 2.5×10^5 cells/mL. Cells were differentiated into macrophages using PMA at a final concentration of 20 ng/mL and further incubated at 37° C. in 5% CO2 environment for 24 h. […] After addition of the compound cells were then incubated for 4 h for TNF-α production and 18 h for IL-1β production at 37° C. in 5% CO2. The supernatants were harvested and analyzed for the level of TNF-α and IL-1β, by human TNF-α and IL-1β Duo set ELISA kits, and according to the manufacturer's instructions.
# [3] = MTT cytotoxicity assay, CC1; type: cell-based; conditions: rat, CC1 rat epithelial liver cells, 48 h incubation, read-out: Cytotoxicity (IC50 μg/mL) CC1 cells
# Description: as §1
# [4] = MTT cytotoxicity assay, MDBK; type: cell-based, bovine; conditions: bovine, MDBK bovine kidney cells, 48 h incubation, read-out: Cytotoxicity (IC50 μg/mL) MDBK cells
# Description: as §1
# MDBK bovine kidney cells = assay: MTT cytotoxicity assay, MDBK; type: cell-based
# Description: as §1
# IL-2 production = assay: IL-2 cytokine production; type: cell-based; conditions: read-out: IL-2 inhibition (IC50 μg/mL)
# serum nitric oxide = assay: Adjuvant induced arthritis model, serum nitric oxide; type: in vivo, Sprague Dawley rats; conditions: AIA rats, daily intraperitoneal; Patuletin 25 mg/kg, indomethacin 5 mg/kg
# Description: (§2) All studies were carried out using Female Sprague Dawley (SD) rats weighing 150-250 gms. Animals were kept at 21±2° C. and on a 12-h light/dark cycle, received standardized pelleted diet and tap water. Experiments were performed under the ethical guidelines of the International Association for the study of pain in conscious animals. Each group contains 12 animals with randomly distributed weights into each treatment group.
# Arthritis was induced by injecting freshly prepared 100 μL of 1 mg suspension of lyophilized Mycobacterium tuberculosis H37Ra (MT H37Ra; DIFCO Laboratories, Detroit, Mich., USA), subcutaneously at the rat tail base using sterile hypodermic needle. […]
# Peroxide (PO) and nitric oxide (NO), in serum were determined in the serum samples of both the normal and arthritic groups, using quantitative colorimetric assay kits, i.e., the Quantichrom ™ Nitric Oxide Assay Kit, and the Quantichrome™ Peroxide assay kit Diox-250 (BioAssay Systems, Hayward, Calif., USA). […] The samples were analyzed in duplicates using 96-well plate and the plate was read at 540 nm. The Quantichrome™ Peroxide assay kit Diox −250 system is an improved method which utilizes the oxidation of Fe^++ by peroxide present in the analyzed sample resulting in formation of purple complex that gives the accurate measure of peroxide level in the sample when read at 540-610 nm.
# serum TNF-α = assay: Adjuvant induced arthritis model, serum TNF-α; type: in vivo, Sprague Dawley rats; conditions: AIA rats, daily intraperitoneal; Patuletin 25 mg/kg, indomethacin 5 mg/kg
# Description: as §2
# Arthritis was induced by injecting freshly prepared 100 μL of 1 mg suspension of lyophilized Mycobacterium tuberculosis H37Ra (MT H37Ra; DIFCO Laboratories, Detroit, Mich., USA), subcutaneously at the rat tail base using sterile hypodermic needle. Inoculation was carried out under anesthesia with a combination of 20 mg/kg ketamine and 5 mg/kg xylazine, injected intraperitoneally. Compound and the reference drug were administered daily, intraperitoneally using sterile syringes. The positive control received vehicle (5% DMSO+PBS) or saline only; treatment groups received test compounds (25 mg/kg), whereas reference group received indomethacin (5 mg/kg). The doses of the test compounds were selected after preliminary dose finding studies. […]
# The quantitative measurement of TNF-α and IL-1β was done in serum of all groups of animals including arthritic and non-arthritic using commercial ELISA assay kits (Abcam, USA) according to the manufacturer's instructions. […]
structure (smiles),measurement,setting,value
"COc1c(O)cc2oc(-c3ccc(O)c(O)c3)c(O)c(=O)c2c1O [Patuletin, 3,5,7,3′,4′-pentahydroxy-6-methoxy flavones]",IC50 at 48 h,[1],36.4 ± 6.9 µg/mL
same,cytotoxicity on NIH 3T3 mouse fibroblast cells (in words),[2],no cytotoxicity
same,IC50,TNF-α production,2.5 µg/mL
same,IC50 at 48 h,[3],5.2 µg/mL
same,IC50 at 48 h,[4],12.6 ± 0.4 µg/mL
same,cytotoxicity on MDBK bovine kidney cells (in words),MDBK bovine kidney cells,no cytotoxicity
same,IC50,IL-2 production,14.8 µg/mL
same,level of nitric oxide in serum versus arthritic control group,serum nitric oxide,marked reduction; also recorded: significant decrease
same,level of TNF-α in serum versus arthritic control group,serum TNF-α,marked decrease
